Read-outs that look alike come from different tables or passages of the source.
What was measured:
K562 cells [1] = assay: K562 cell viability, CellTiter-Glo luminescent assay; assay type: cell-based, Human; conditions: 48 h; for IC50: Homo sapiens
Experimental: K562 cells were treated with indicated concentrations of CFZ for 24 h or 48 h, cell viability was then assessed using the CellTiter-Glo luminescent cell viability assay (Promega). Data is mean±SEM of three independent experiments (each in triplicates). IC50 was calculated using Graphpad prism 5 software.
K562 cells were treated as indicated for 48 h and cell viability was determined by CellTiter-Glo luminescent cell viability assay (A) graphical representation of mean±SEM of three independent experiments.
(§1) Determination of CFZ's Effect on Cell Viability and Apoptosis • a. CellTitre-Glo assay: Cell viability (in FIG. 1B, FIG. 4 and FIG. 6A) assays was performed using the ATP-based CellTiter-Glo Luminescent cell viability assay (Promega Madison, Wis.) as per the manufacturer's instruction. Briefly, (1.25×10^5) K562 cells/ml (FIG. 1B and FIG. 4) or CD34+ cells from healthy donors (FIG. 6A) were cultured in 48-well plates and were treated as indicated in the respective figures and figure descriptions (vehicle; V=0.1% DMSO). Cells were then incubated with CellTitre-Glo reagent for 15 min. Luminescence was recorded in a GloMax-96 Microplate luminometer (Promega, Madison, Wis.) with an integration time of 1 s per well. • b. Analysis of apoptosis by Annexin V staining and flow cytometry • K562 (FIG. 1C-D) and primary CP-CML cells (FIG. 1H-I) were cultured in 6 well plates (2×10^5 cells/well) and were treated with indicated concentrations of compounds as described in respective figures and their descriptions. Cells were then harvested and washed, and incubated in binding buffer (Annexin V Binding Buffer, BD Pharmingen) with 0.3% Annexin V-FITC and PI for 15 min at room temperature in dark. Apoptosis was measured by FACSCalibur flow cytometer (Becton Dickenson, San Jose, Calif.). • c. TUNEL assay • Pro-apoptotic potential was analysed using a Fluorometric APO-BrdU™ TUNEL Assay Kit (Invitrogen) according to the manufacturer's protocol (FIG. 1F). Cells were treated with Vehicle (0.1% DMSO) or CFZ (5 μM) for 48 h. Cells were then fixed in formaldehyde (4%) for 25 min at 4° C., permeabilized with 0.2% Triton-X100 and washed with PBS. Cells were then incubated in Terminal Deoxynucleotidyl Transferase (TdT) reaction buffer without TdT enzyme for 7 minutes at room temperature and then in TdT buffer with TdT enzyme at 37° C. in dark. After termination of TdT reaction, cells were stained with 5 μg/ml of PI for 15 min in dark followed by washing and analysed with fluorescence microscopy.

[2] = system: Peripheral blood mononuclear cells from control donors; assay: Apoptosis by annexin V/PI staining in PBMC from control donors; assay type: cell-based, Human; conditions: 5 μM, 48 h
K562 cells [3] = assay: Megakaryocytic differentiation in K562 cells (May-Grünwald-Giemsa staining, CD61/CD41 flow cytometry); assay type: cell-based, Human
Experimental: K562 cells were treated with CFZ for 120 h and May-Grünwald-Giemsa staining followed by light microscopy was used to assess cellular morphology. […] PMA was used as appositive control. Representative photomicrographs from two independent experiments (8 fields per treatment group) are shown.
FIG. 3B-3C in particular show CFZ induces megakaryocytic surface markers CD61 (early) and CD41 (late) in K562 cells. K562 cells were treated as indicated for 72 h (Phorbol myristate acetate (PMA) was used as positive control) and then were stained with IgG isotype control or CD61 (B) & CD41 (C) IgG antibodies and were analyzed by flowcytometry (n=3). ***p<0.0001. PMA was used as a positive control.
May-Grünwald Giemsa Staining: To assess the changes in nuclear morphology, cells treated with vehicle (0.1% DMSO), CFZ (indicated concentrations in FIG. 3A) or PMA (positive control; 10 ng/ml) for 120 h (FIG. 3A). Cells were then washed with phosphate buffer saline (PBS) and were attached to glass slides by cytospin. These slides were stained with Giemsa and May-Grünwald solution (Sigma) as per manufacturer's instruction. Cells were then visualized by microscopy.
Differentiation analyses by flow cytometry: K562 (FIG. 3B-C) or primary CP-CML cells (FIG. 3D-E) were treated with vehicle, CFZ and PMA as indicated in the respective figures and figure descriptions for 72 hrs. Cells were then harvested, washed, and centrifuged, resuspended in 100 μl PBS and were stained with CD41-FITC or CD61-PE antibodies for 30 min at room temperature (in dark). After incubation, the cells were washed and resuspended in 300 μl PBS and were analyzed on a FACSCalibur flow cytometer.

[4] = system: CD34+ cells from healthy donors
Experimental: as §1

K562 cells [5] = assay: Western blotting of apoptosis proteins in K562 cells; assay type: cell-based, Human
Experimental: PARP cleavage in K562 cells was assessed by western blotting. One representative of three independent experiments is shown.
The expression of indicated proteins was determined by immunoblotting in K562 cells following indicated treatments. One representative of three independent experiments is shown.
K562 cells were cultured in 6 well plates and treated as indicated in figures or descriptions of FIG. 1E, FIG. 1G and FIG. 2D-E. Cells were then homogenized in lysis buffer containing 50 mM Tris-HCl, pH 7.5, 150 mM NaCl, 1% NP40, 5 mM EDTA, 1 mM DTT, protease and phosphatase inhibitor cocktails (Sigma) and incubated on ice for 30 min followed by 5 cycles of freeze-thaw. Samples were then centrifuged at 14000 rpm at 4° C. for 30 min. Supernatants were then quantified by Bichinchonic acid (Sigma)-based protein estimation. Equal amount of proteins were solubilized in Laemmli buffer, and were resolved by 10%-12% SDS PAGE and transferred onto PVDF membranes (Millipore; Billerica, Mass.). Membranes were blocked in 5% (w/v) non-fat dried milk powder (Sigma) in PBS containing 0.2% Tween 20 (Sigma). The membranes were then sequentially incubated with primary and secondary antibodies in PBS containing 0.2% Tween 20 and 2.5% BSA (with 3 washes in between). Immunoreactivity was detected using a chemiluminescent HRP Substrate (Millipore) in a LAS 4010 Chemi-doc Imager (GE Healthcare, Little Chalfont, UK). Antibodies used: phospho-STAT5, STAT5, cleaved PARP and caspases-3, -8, -9, pCrkL, Bcl2 and Bax antibodies were from Cell Signaling Technology (Boston, Mass.). Mouse monoclonal anti-β-Actin-Peroxidase and horse raddish peroxidase-conjugated secondary antibodies were from Sigma-Aldrich. For immunoblotting all primary antibodies were used in 1:1000 dilutions except β-actin (1:50000). Secondary antibodies were used at 1:10000 dilutions.

CC(C)/N=c1\cc2n(-c3ccc(Cl)cc3)c3ccccc3nc-2cc1Nc1ccc(Cl)cc1 [CFZ, Clofazimine]
combination index (CI) (K562 cells [1]; CFZ with dasatinib, Compusyn): < 1 | combination index (CI) (K562 cells [1]; CFZ with imatinib, Compusyn program): < 1 | IC50 (K562 cells [1]; FIG. 1B, read-out: IC50 (48 h), reduction of viability): 5.85 µM | IC50 (K562 cells [1]; drug alone, FIG. 4A, read-out: IC50, K562 cell viability assay (48 h)): 4.13 µM | apoptosis in cells from control donors [2]: didn't affect | megakaryocytic differentiation phenotype (K562 cells [3]; 1 μM, 120 h, May-Grünwald-Giemsa staining): induced | megakaryocytic surface marker CD41 (K562 cells [3]; 72 h): increased | megakaryocytic surface marker CD61 (K562 cells [3]; 72 h): increased | apoptosis in CD34+ cells from healthy donor by Annexin V [4]: no apoptosis | viability of CD34+ hematopoietic progenitor cells from healthy controls [4]: No loss of survival | Bax expression (K562 cells [5]): increased | Bcl-2 expression (K562 cells [5]): decreased | caspase-3 activation (K562 cells [5]): activated | caspase-9 activation (K562 cells [5]): activated | cytochrome C release (K562 cells [5]): induced | apoptosis as determined by PARP cleavage (K562 cells [5]; western blotting): induces apoptosis
